Laboratory results as given in article PMC11187573, “Identification of SARS-CoV-2 Mpro inhibitors through deep reinforcement learning for de novo drug design and computational chemistry approaches” (RSC Medicinal Chemistry, 2024).
pIC50: −log10 of the molar value. Read-outs that look alike come from different tables or passages of the source.

What was measured:
SARS-CoV-2 main protease = type: biochemical; conditions: Docking validation set, class assigned from COVID Moonshot IC50
Mpro = conditions: ML dataset, cited from earlier work
[1] = system: SARS, SARS-CoV-2 and MERS Mpro; conditions: cited from earlier work
[2] = Origin COVID_Moonshot, ref COVID Moonshot

| Compound | label (active / inactive) (SARS-CoV-2 main protease) | pIC50 (Mpro; [2]) | pIC50 [1, 2] | also measured |
| --- | --- | --- | --- | --- |
| Cn1ccc(C(=O)NC[C@@H]2CCCO2)n1 [AAR-POS-0daf6b7e-23, Cn1ccc(C(=O)NC[C@@H]2CCCO2)n1] | inactive | – | – | – |
| Cc1ccncc1CC(=O)Nc1cccc2c1CNCC2 [ADA-UCB-6c2cb422-3, Cc1ccncc1CC(=O)Nc1cccc2c1CNCC2] | inactive | – | – | – |
| CN(C)c1ccc(N(Cc2cccc(Cl)c2)C(=O)Cn2nnc3ccccc32)cc1 [ALP-POS-6d04362c-2, CN(C)c(cc1)ccc1N(Cc1cccc(Cl)c1)C(Cn1nnc2c1cccc2)=O, reference compound] | – | 6.35 | 6.30 | – |
| O=C(Nc1cncc2ccccc12)C1CCCc2ccc(Cl)cc21 (centres unmarked) [ALP-POS-477dc5b7-1, O=C(C(CCC1)c2c1ccc(Cl)c2)Nc1cncc2ccccc12, reference compound] | – | 6.51 | 6.49 | – |
| O=C1N(Cc2cccc(Cl)c2)CCN1c1nccc2[nH]ncc12 [ALP-POS-91609ae9-3, O=C(N(Cc1cccc(Cl)c1)CC1)N1c1nccc2c1cn[nH]2, reference compound] | – | 5.43 | 5.34 | – |
| NCc1cn(CC(=O)N(CC(=O)N2CCNCC2)c2ccc(-c3ccccc3)cc2)nn1 [ALP-POS-c0c213c9-7, NCc1cn(CC(=O)N(CC(=O)N2CCNCC2)c2ccc(-c3ccccc3)cc2)nn1] | inactive | – | – | – |
| Cn1ccc(CN(C(=O)Cc2cccnc2)c2ccc(-c3ccccn3)cc2)n1 [ALP-POS-c0c213c9-14, Cn1ccc(CN(C(=O)Cc2cccnc2)c2ccc(-c3ccccn3)cc2)n1] | inactive | – | – | – |
| O=C(Cn1nnc2ccccc21)N(Cc1ccccn1)c1ccc(-n2cnnc2)cc1 [ALP-POS-c0c213c9-18, O=C(Cn1nnc2ccccc21)N(Cc1ccccn1)c1ccc(-n2cnnc2)cc1] | inactive | – | – | – |
| Cc1ccn2c(-c3ccc4[nH]ncc4c3)c(-c3ccc(F)cc3)nc2c1 [ALV-UNI-7ff1a6f9-14, Cc1ccn2c(-c3ccc4[nH]ncc4c3)c(-c3ccc(F)cc3)nc2c1] | inactive | – | – | – |
| CC(=O)N1CCN(CC(=O)Nc2cnccc2C)CC1 [BEN-DND-93268d01-8, CC(=O)N1CCN(CC(=O)Nc2cnccc2C)CC1] | inactive | – | – | – |
| O=C(Nc1nncn1C1CC1)C1CCOc2c(F)cccc21 (centres unmarked) [BRU-THA-a358fbdd-7, O=C(Nc1nncn1C1CC1)C1CCOc2c(F)cccc21] | inactive | – | – | – |
| CC(C)Nc1cccnc1N1CCN(C(=O)c2cc3cc(NS(C)(=O)=O)ccc3[nH]2)CC1 [CHEMBL929, CC(C)Nc1cccnc1N(CC1)CCN1C(c1cc(cc(cc2)NS(C)(=O)=O)c2[nH]1)=O, reference compound] | – | – | – | pIC50 (Mpro; Origin ChEMBL, ref ChEMBL): 5.40; pIC50 ([1]; Origin ChEMBL, ref ChEMBL): 5.40 |
| Cc1c(-c2cnccn2)ssc1=S [CHEMBL178459, CC1=C(c2nccnc2)SSC1=S, reference compound] | – | – | – | pIC50 (Mpro; Origin ChEMBL, ref ChEMBL): 6.38; pIC50 ([1]; Origin ChEMBL, ref ChEMBL): 6.38 |
| COc1nc2ccc(Br)cc2cc1[C@@H](c1ccccc1)[C@@](O)(CCN(C)C)c1cccc2ccccc12 [CHEMBL376488, CN(C)CC[C@]([C@H](c1ccccc1)c(cc(cc(cc1)Br)c1n1)c1OC)(c1cccc2ccccc12)O, reference compound] | – | – | – | pIC50 (Mpro; Origin ChEMBL, ref ChEMBL): 5.36; pIC50 ([1]; Origin ChEMBL, ref ChEMBL): 5.36 |
| CC(CN1CC(=O)NC(=O)C1)N1CC(=O)NC(=O)C1 (centres unmarked) [CHEMBL444186, CC(CN(CC(N1)=O)CC1=O)N(CC(N1)=O)CC1=O, reference compound] | – | – | – | pIC50 (Mpro; Origin ChEMBL, ref ChEMBL): 5.50; pIC50 ([1]; Origin ChEMBL, ref ChEMBL): 5.50 |
| Nc1ccc(O)c2ncccc12 [CHEMBL449298, Nc(c1cccnc11)ccc1O, reference compound] | – | – | – | pIC50 (Mpro; Origin ChEMBL, ref ChEMBL): 5.69; pIC50 ([1]; Origin ChEMBL, ref ChEMBL): 5.69 |
| CN1CC[C@@]2(C)c3cc(O)ccc3N(C)[C@@H]12 [CHEMBL1256915, C[C@]12c(cc(cc3)O)c3N(C)[C@H]1N(C)CC2, reference compound] | – | – | – | pIC50 (Mpro; Origin ChEMBL, ref ChEMBL): 5.70; pIC50 ([1]; Origin ChEMBL, ref ChEMBL): 5.70 |
| COc1cc(C(=S)N2CCOCC2)ccc1O [CHEMBL1380480, COc(cc(cc1)C(N2CCOCC2)=S)c1O, reference compound] | – | – | – | pIC50 (Mpro; Origin ChEMBL, ref ChEMBL): 5.88; pIC50 ([1]; Origin ChEMBL, ref ChEMBL): 5.88 |
| c1ccc2sc(SNC3CCCCC3)nc2c1 [CHEMBL1591074, C(CC1)CCC1NSc1nc(cccc2)c2s1, reference compound] | – | – | – | pIC50 (Mpro; Origin ChEMBL, ref ChEMBL): 6.11; pIC50 ([1]; Origin ChEMBL, ref ChEMBL): 6.11 |
| CC(C)c1cc(CNc2nc(Nc3cc(C4CC4)[nH]n3)cc(N3CCN(C)CC3)n2)on1 [CHEMBL3545085, CC(C)c1noc(CNc2nc(N3CCN(C)CC3)cc(Nc3n[nH]c(C4CC4)c3)n2)c1, reference compound] | – | – | – | pIC50 (Mpro; Origin ChEMBL, ref ChEMBL): 5.83; pIC50 ([1]; Origin ChEMBL, ref ChEMBL): 5.83 |
| O=c1sn(-c2cccc3ccccc23)c(=O)n1Cc1ccccc1 [CHEMBL3545157, O=C(N1Cc2ccccc2)N(c2cccc3ccccc23)SC1=O, reference compound] | – | – | – | pIC50 (Mpro; Origin ChEMBL, ref ChEMBL): 6.94; pIC50 ([1]; Origin ChEMBL, ref ChEMBL): 6.94 |
| Cc1ccc(N(Cc2cccc(Cl)c2)C(=O)Cn2nnc3ccccc32)cc1 [CHO-MSK-00c5269a-1, Cc(cc1)ccc1N(Cc1cccc(Cl)c1)C(Cn1nnc2c1cccc2)=O, reference compound] | – | 5.55 | 5.63 | – |

| Compound | label (active / inactive) (SARS-CoV-2 main protease) | pIC50 (Mpro; [2]) | pIC50 [1, 2] | also measured |
| --- | --- | --- | --- | --- |
| O=C(COc1ccccc1F)Nc1ncnc2[nH]cnc12 [COM-UCB-8c7d23dc-1, O=C(COc1ccccc1F)Nc1ncnc2[nH]cnc12] | inactive | – | – | – |
| Cc1[nH]c2ncnc(NC(=O)c3cc4ccccc4c(=O)o3)c2c1C [COM-UCB-8c7d23dc-12, Cc1[nH]c2ncnc(NC(=O)c3cc4ccccc4c(=O)o3)c2c1C] | inactive | – | – | – |
| O=C(Nc1c[nH]nc1-c1ccccn1)c1cccc2nccn12 [COM-UCB-8c7d23dc-15, O=C(Nc1c[nH]nc1-c1ccccn1)c1cccc2nccn12] | inactive | – | – | – |
| Cc1ccncc1NC(=O)N(C)c1cccc(Cl)c1 [EDG-MED-0da5ad92-3, Cc1ccncc1NC(=O)N(C)c1cccc(Cl)c1] | inactive | – | – | – |
| O=C(Nc1nncn1C1CC1)C1CCOc2ccccc21 (centres unmarked) [EDJ-MED-0e996074-1, O=C(Nc1nncn1C1CC1)C1CCOc2ccccc21] | inactive | – | – | – |
| O=C(Cc1cccc(Cl)c1)Nc1cnnc2ccccc12 [EDJ-MED-50fe53e8-2, O=C(Cc1cccc(Cl)c1)Nc1cnnc2ccccc12] | inactive | – | – | – |
| O=C(Nc1cncc2ccccc12)N(CCC1CCCCC1)c1cccc(Cl)c1 [EDJ-MED-c314995a-1, O=C(Nc1cncc2ccccc12)N(CCC1CCCCC1)c1cccc(Cl)c1, reference compound] | – | 6.21 | 6.58 | – |
| C[C@@H]1C[C@@H](C(=O)Nc2cncc3ccccc23)c2cc(Cl)ccc2O1 [EDJ-MED-e4b030d8-2, C[C@H](C[C@H]1C(Nc2cncc3ccccc23)=O)Oc(cc2)c1cc2Cl, reference compound] | – | 6.42 | 6.64 | – |
| COC(=O)c1c(C)n(S(C)(=O)=O)c2ccc(N(C(=O)c3ccco3)S(C)(=O)=O)cc12 [LON-WEI-4d77710c-11, Cc1c(C(OC)=O)c(cc(cc2)N(C(c3ccco3)=O)S(C)(=O)=O)c2n1S(C)(=O)=O, reference compound] | – | 6.20 | 6.03 | – |
| O=C(O)[C@@H](c1ccccc1)N1Cc2ccccc2C1=O [LON-WEI-4d77710c-19, OC([C@@H](c1ccccc1)N(Cc1c2cccc1)C2=O)=O, reference compound] | – | 5.83 | 5.75 | – |
| CCOC(=O)c1cc(-c2ccccc2)sc1NC(=O)Cc1csc(-c2ccccc2)n1 [LON-WEI-4d77710c-24, CCOC(c1c(NC(Cc2csc(-c3ccccc3)n2)=O)sc(-c2ccccc2)c1)=O, reference compound] | – | 5.44 | 5.33 | – |
| N#Cc1ccc(CN2CCC(C3CCNC3)CC2)cc1 (centres unmarked) [LON-WEI-4d77710c-32, N#Cc1ccc(CN(CC2)CCC2C2CNCC2)cc1, reference compound] | – | 5.77 | 5.69 | – |
| Cc1cc(C)c(C#N)c(Sc2ncnc3c2nnn3Cc2ccccc2)n1 [LON-WEI-4d77710c-73, Cc(cc(C)nc1Sc2ncnc3c2nnn3Cc2ccccc2)c1C#N, reference compound] | – | 6.34 | 6.19 | – |
| COc1cccc2[nH]c(=O)cc(C(=O)N3CCN(c4cccc(Cl)c4)CC3)c12 [MAT-POS-3b536971-2, COc(cccc1N2)c1C(C(N(CC1)CCN1c1cccc(Cl)c1)=O)=CC2=O, reference compound] | – | 5.49 | 5.33 | – |
| C[C@@H]1C[C@H](C(=O)Nc2cncc3ccccc23)c2cc(Cl)ccc2O1 [MAT-POS-8a69d52e-2, C[C@H](C[C@@H]1C(Nc2cncc3ccccc23)=O)Oc(cc2)c1cc2Cl, reference compound] | – | 5.78 | 6.17 | – |
| O=C(Cc1cc(Cl)cc(Oc2cccnc2)c1)Nc1cncc2ccccc12 [MAT-POS-9ff17035-3, O=C(Cc1cc(Cl)cc(Oc2cnccc2)c1)Nc1cncc2ccccc12, reference compound] | – | 5.85 | 5.87 | – |
| O=C(c1cncc2ccccc12)N1CCN(c2cccc(Cl)c2)CC1 [MAT-POS-54c4bf04-3, O=C(c1cncc2ccccc12)N(CC1)CCN1c1cccc(Cl)c1, reference compound] | – | 5.91 | 5.79 | – |
| O=C(Cc1cncc2ccccc12)N(CCC1CCCCC1)c1cccc(Cl)c1 [MAT-POS-173a45da-1, O=C(Cc1cncc2ccccc12)N(CCC1CCCCC1)c1cccc(Cl)c1, reference compound] | – | 5.80 | 5.68 | – |
| O=c1oc(Nc2ccccc2)nc2ccccc12 [MAT-POS-ea426761-13, O=C1OC(Nc2ccccc2)=Nc2c1cccc2, reference compound] | – | 6.01 | 5.80 | – |
| CC(C)(C)c1ccc(N(C(=O)c2c[nH]cn2)C(C(=O)NCCc2cccc(F)c2)c2cccnc2)cc1 (centres unmarked) [MAT-POS-f2460aef-3, CC(C)(C)c(cc1)ccc1N(C(C(NCCc1cccc(F)c1)=O)c1cnccc1)C(c1c[nH]cn1)=O, reference compound] | – | 6.17 | 6.54 | – |
| CC(C)(C)c1ccc(N(C(=O)c2ccc(Cl)o2)C(C(=O)NCCc2cccc(F)c2)c2cccnc2)cc1 (centres unmarked) [MAT-POS-f2460aef-4, CC(C)(C)c(cc1)ccc1N(C(C(NCCc1cc(F)ccc1)=O)c1cnccc1)C(c(o1)ccc1Cl)=O, reference compound] | – | 6.38 | 6.50 | – |
| O=C1OC(c2cccs2)=N/C1=C\c1ccc(N2CCOCC2)s1 [MAT-POS-fa06b69f-6] | – | 6.15 | 6.16 | – |
